{"source": "patent US7183238B2", "about": "“[1,2]-oxazine-3,5-diones” (Bayer CropScience AG, priority 2001, dated 2007)", "type_in_all_cases": "in vivo", "key": {"[1]": {"tested_on": "caterpillars of the armyworm (Spodoptera frugiperda)", "assay": "Spodoptera frugiperda test", "settings": "500 ppm active compound, cabbage leaves (Brassica oleracea) dipped", "method": "(§1) Spodoptera frugiperda Test • Solvent: 7 parts by weight of dimethylformamide • Emulsifier: 2 parts by weight of alkylaryl polyglycol ether To produce a suitable preparation of active compound, 1 part by weight of active compound is mixed with the stated amounts of solvent and emulsifier, and the concentrate is diluted with emulsifier-containing water to the desired concentration. Cabbage leaves (Brassica oleracea) are treated by being dipped into the preparation of active compound of the desired concentration and are populated with caterpillars of the armyworm (Spodoptera frugiperda) while the leaves are still moist. After the desired period of time, the kill in % is determined. 100% means that all caterpillars have been killed; 0% means that none of the caterpillars has been killed."}, "[2]": {"tested_on": "greenhouse red spider mite (Tetranychus urticae)", "assay": "Tetranychus test (OP-resistant/dip treatment)", "settings": "100 ppm active compound, OP-resistant, infested bean plants (Phaseolus vulgaris) dipped", "method": "Tetranychus Test (OP-Resistant/dip Treatment)\n• Solvent: 7 parts by weight of dimethylformamide • Emulsifier: 2 parts by weight of alkylaryl polyglycol ether\nTo produce a suitable preparation of active compound, 1 part by weight of active compound is mixed with the stated amounts of solvent and emulsifier, and the concentrate is diluted with emulsifier-containing water to the desired concentration.\nBean plants (Phaseolus vulgaris) which are heavily infested by all stages of the greenhouse red spider mite (Tetranychus urticae) are dipped into a preparation of active compound of the desired concentration.\nAfter the desired period of time, the effect in % is determined. 100% means that all spider mites have been killed; 0% means that none of the spider mites has been killed."}, "[3]": {"tested_on": "larvae of the mustard beetle (Phaedon cochleariae)", "assay": "Phaedon larvae test", "settings": "500 ppm active compound, cabbage leaves (Brassica oleracea) dipped", "method": "as §1, with “Phaedon Larvae Test” for “Spodoptera frugiperda Test”, “of solvents” for “of solvent”, “with larvae” for “with caterpillars”, “the mustard beetle (Phaedon cochleariae)” for “the armyworm (Spodoptera frugiperda)”, “all beetle larvae” for “all caterpillars”, “the beetle larvae” for “the caterpillars”"}}, "data": [{"smiles": "Cc1ccc(-c2ccc(Cl)cc2)cc1C1=C(OC(=O)OCC(C)C)C(C)(C)ON(C)C1=O", "note": "[Example I-c-1]", "values": [{"measurement": "Kill rate in % after 7^d", "setting": "[1]", "result": 100, "unit": "%"}, {"measurement": "Kill rate in % after 7^d", "setting": "[2]", "result": 98, "unit": "%"}, {"measurement": "Kill rate in % after 7^d", "setting": "[3]", "result": 100, "unit": "%"}]}]}
